Experimental data reported in paper PMC4412466 (Supramolecular chemistry, 2014).

Key:
[1] = Phase solubility diagram of container with excess albendazole; assay type: physicochemical; conditions: 50 mM NaOAc buffer, pD 4.74
[2] = Phase solubility diagram of container with excess cinnarizine; assay type: physicochemical; conditions: 50 mM NaOAc buffer, pD 4.74
[3] = Phase solubility diagram of container with excess camptothecin; assay type: physicochemical; conditions: 0.01 M DCl, pD 2.0
[4] = cited from earlier work

Cucurbit[7]uril [CB[7]]
affinity toward albendazole (slope of phase solubility diagram), CB[7] versus 1 [1]: comparable | maximum [cinnarizine] obtained with container [2]: 13.7 mM | affinity toward camptothecin (slope of phase solubility diagram), CB[7] versus 1 [3]: comparable affinity | solubility in water [4]: 20 to 30 mM
